Patent US7994326B2 (Northwestern University, priority 2003, dated 2011)
Like-named read-outs stand apart in the source and are kept apart here.

Legend:
Type in all cases: biochemical
rat nNOS = target: T1, rat nNOS (Rattus norvegicus, UniProt P29476); experiment: NOS enzyme inhibitory assay (hemoglobin capture), nNOS; conditions: for IC50: rat nNOS, 10 μM L-arginine
T1 construct: made in house; host or cells: E. coli (plasmid pCWnNOS)
Summary of the method: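 Recombinant rat nNOS expressed in E. coli and purified by calmodulin-Sepharose and 2′,5′-ADP-Sepharose chromatography. NO production followed by hemoglobin capture; inhibition expressed as Ki, selectivity as ratio of Ki values.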

murine iNOS = target: T2, murine iNOS (Mus musculus, UniProt P29477); experiment: NOS enzyme inhibitory assay (hemoglobin capture), iNOS; conditions: for IC50: murine iNOS, 10 μM L-arginine
T2 construct: made in house; host or cells: E. coli (plasmid pCWiNOS)
Summary of the method: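 Recombinant murine iNOS, overexpressed in E. coli from plasmid pCWiNOS (induced with 1 mM IPTG) and purified on a 2′,5′-ADP-Sepharose 4B column with elution by 10 mM 2′(3′)-AMP, 10 μM BH4 and 0.3 M NaCl, was used to test inhibitors. Nitric oxide production was followed with the hemoglobin capture assay, and IC50 values were determined.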

bovine eNOS = target: T3, bovine eNOS (Bos taurus, UniProt P29473); experiment: NOS enzyme inhibitory assay (hemoglobin capture), eNOS; conditions: for IC50: bovine eNOS, 10 μM L-arginine, * = no inhibition observed up to the concentration listed
T3 construct: made in house; host or cells: E. coli (plasmid Bov-eNOSpCW)

[1] = Table 1b, ratio of Ki values eNOS/nNOS
[2] = Table 1b, ratio of Ki values iNOS/nNOS
[3] = Table 1a, apparent Ki calculated from IC50, Km […], read-out: calc. Ki nNOS
[4] = Table 1a, apparent Ki calculated from IC50, Km […], read-out: calc. Ki iNOS
[5] = Table 1a, apparent Ki calculated from IC50, Km 1.7 μM, read-out: calc. Ki eNOS

Cc1cc(N)nc(CC2CNCC2NCCNCc2ccc(Cl)c(Cl)c2)c1.Cl.Cl.Cl.Cl (racemic) [Compound P-65]
Selectivity n/e (rat nNOS; [1]): 153
Selectivity n/i (rat nNOS; [2]): 57.4
Ki (rat nNOS; Table 1b, read-out: Ki nNOS): 0.414 µM
Ki (murine iNOS; Table 1b, read-out: Ki iNOS): 23.8 µM
Ki (bovine eNOS; Table 1b, read-out: Ki eNOS): 63.2 µM

Cc1cc(N)nc(C[C@H]2CNC[C@@H]2NCCNCc2ccc(Cl)cc2Cl)c1.Cl.Cl.Cl.Cl (racemic) [Compound P-66]
Selectivity n/e (rat nNOS; [1]): 158
Selectivity n/i (rat nNOS; [2]): 91.6
Ki (rat nNOS; Table 1b, read-out: Ki nNOS): 0.483 µM
Ki (murine iNOS; Table 1b, read-out: Ki iNOS): 44.2 µM
Ki (bovine eNOS; Table 1b, read-out: Ki eNOS): 76.1 µM

Cc1cc(N)nc(CC2CNCC2NCC(C)NCc2ccc(Cl)cc2)c1.Cl.Cl.Cl.Cl (racemic) [Compound P-68]
Selectivity n/e (rat nNOS; [1]): 28
Selectivity n/i (rat nNOS; [2]): 34.7
Ki (rat nNOS; Table 1b, read-out: Ki nNOS): 0.589 µM
Ki (murine iNOS; Table 1b, read-out: Ki iNOS): 20.5 µM
Ki (bovine eNOS; Table 1b, read-out: Ki eNOS): 16.5 µM

Cc1cc(N)nc(CC2CNCC2NCCNCCc2ccc(F)cc2)c1.Cl.Cl.Cl.Cl (racemic) [Compound P-70]
Selectivity n/e (rat nNOS; [1]): 656.2
Selectivity n/i (rat nNOS; [2]): 170.3
Ki (rat nNOS; Table 1b, read-out: Ki nNOS): 0.027 µM
Ki (murine iNOS; Table 1b, read-out: Ki iNOS): 4.6 µM
Ki (bovine eNOS; Table 1b, read-out: Ki eNOS): 17.7 µM

Cc1cc(N)nc(C[C@H]2CNC[C@@H]2NCCNCCc2ccc(F)cc2)c1.Cl.Cl.Cl.Cl (racemic) [Compound P-72]
Selectivity n/e (rat nNOS; [1]): 370.5
Selectivity n/i (rat nNOS; [2]): 189.9
Ki (rat nNOS; Table 1b, read-out: Ki nNOS): 0.119 µM
Ki (murine iNOS; Table 1b, read-out: Ki iNOS): 22.6 µM
Ki (bovine eNOS; Table 1b, read-out: Ki eNOS): 44.1 µM

Cc1cc(N)nc(CC2CNCC2N(C)CCN(C)CCc2cccc(F)c2)c1.Cl.Cl.Cl.Cl (racemic) [Compound P-74]
Selectivity n/e (rat nNOS; [1]): 40.27
Selectivity n/i (rat nNOS; [2]): 46.7
Ki (rat nNOS; Table 1b, read-out: Ki nNOS): 1.21 µM
Ki (murine iNOS; Table 1b, read-out: Ki iNOS): 56.6 µM
Ki (bovine eNOS; Table 1b, read-out: Ki eNOS): 48.9 µM

Cc1cc(N)nc(C[C@H]2CNC[C@H]2N(C)CCNCCc2cccc(F)c2)c1.Cl.Cl.Cl.Cl (racemic) [Compound P-75]
Selectivity n/e (rat nNOS; [1]): 283.5
Selectivity n/i (rat nNOS; [2]): 117.3
Ki (rat nNOS; Table 1b, read-out: Ki nNOS): 0.326 µM
Ki (murine iNOS; Table 1b, read-out: Ki iNOS): 38.2 µM
Ki (bovine eNOS; Table 1b, read-out: Ki eNOS): 92.4 µM

Cc1cc(N)nc(C[C@H]2CNC[C@H]2NC(=O)CNCCc2cccc(F)c2)c1.Cl.Cl.Cl (racemic) [Compound P-77, (±)-N-{cis-4-[(6-amino-4-methylpyridin-2-yl)methyl]pyrrolidin-3-yl}-2-(3-fluorophenethylamino)acetamide trihydrochloride]
Selectivity n/e (rat nNOS; [1]): 500
Selectivity n/i (rat nNOS; [2]): 26.4
Ki (rat nNOS; Table 1b, read-out: Ki nNOS): 0.053 µM
Ki (murine iNOS; Table 1b, read-out: Ki iNOS): 1.4 µM
Ki (bovine eNOS; Table 1b, read-out: Ki eNOS): 26 µM

Cc1cc(N)nc(C[C@@H]2CNC[C@@H]2NCCOCCc2cccc(F)c2)c1 (racemic) [Compound P-78, cis-6-{{(±)-4-[2-(3-fluorophenethoxy)ethylamino]pyrrolidin-3-yl}methyl}-4-methylpyridin-2-amine]
Selectivity n/e (rat nNOS; [1]): 50
Selectivity n/i (rat nNOS; [2]): 3.5
Ki (rat nNOS; Table 1b, read-out: Ki nNOS): 0.4 µM
Ki (murine iNOS; Table 1b, read-out: Ki iNOS): 1.4 µM
Ki (bovine eNOS; Table 1b, read-out: Ki eNOS): 20 µM

Cc1cc(N)nc(C[C@H]2CNC[C@H]2OCCNC(=O)Cc2cccc(F)c2)c1.Cl.Cl (racemic) [Compound P-80, (±)-N-{2-{cis-4-[(6-amino-4-methylpyridin-2-yl)methyl]pyrrolidin-3-yloxy}ethyl}-2-(3-fluorophenyl)acetamide dihydrochloride]
Selectivity n/e (rat nNOS; [1]): 17
Selectivity n/i (rat nNOS; [2]): 3.8
Ki (rat nNOS; Table 1b, read-out: Ki nNOS): 5 µM
Ki (murine iNOS; Table 1b, read-out: Ki iNOS): 19 µM
Ki (bovine eNOS; Table 1b, read-out: Ki eNOS): 85 µM

Cc1cc(N)nc(C[C@H]2CNC[C@@H]2OCCN)c1.Cl.Cl.Cl (racemic) [Compound P-81]
Selectivity n/e (rat nNOS; [1]): 0.3
Selectivity n/i (rat nNOS; [2]): 1.7
Ki (rat nNOS; Table 1b, read-out: Ki nNOS): 5 µM
Ki (murine iNOS; Table 1b, read-out: Ki iNOS): 8.5 µM
Ki (bovine eNOS; Table 1b, read-out: Ki eNOS): 1.5 µM

Cl.Cl.Cl.Cl.Nc1nc(CC2CNCC2NCCNCc2ccc(Cl)cc2)cs1 (racemic) [Compound P-82]
Selectivity n/e (rat nNOS; [1]): 1.8
Selectivity n/i (rat nNOS; [2]): 2
Ki (rat nNOS; Table 1b, read-out: Ki nNOS): 1.7 µM
Ki (murine iNOS; Table 1b, read-out: Ki iNOS): 3.4 µM
Ki (bovine eNOS; Table 1b, read-out: Ki eNOS): 3 µM

Nc1cccc(CC2CNCC2NC2CCN(Cc3ccccc3)C2)n1 (centres unmarked) [Compound P-36]
Selectivity n/e (rat nNOS; Table 1a, Ki(eNOS)/Ki(nNOS)): 32.20
Selectivity n/i (rat nNOS; Table 1a, Ki(iNOS)/Ki(nNOS)): 66.39
Ki (rat nNOS; [3]): 3.34 µM
IC50 (rat nNOS; Table 1a): 29 µM
Ki (murine iNOS; [4]): 222 µM
IC50 (murine iNOS; Table 1a): 489 µM
Ki (bovine eNOS; [5]): 108 µM
IC50 (bovine eNOS; Table 1a): 740 µM

Nc1cccc(CC2CNCC2NC2CCN(Cc3ccccc3)C2)n1 (centres unmarked) [Compound P-37]
Selectivity n/e (rat nNOS; Table 1a, Ki(eNOS)/Ki(nNOS)): 2.42
Selectivity n/i (rat nNOS; Table 1a, Ki(iNOS)/Ki(nNOS)): 3.05
Ki (rat nNOS; [3]): 75.2 µM
IC50 (rat nNOS; Table 1a): 654 µM
Ki (murine iNOS; [4]): 229 µM
IC50 (murine iNOS; Table 1a): 506 µM
Ki (bovine eNOS; [5]): 182 µM
IC50 (bovine eNOS; Table 1a): 1250 µM

Nc1cccc(CC2CNCC2NC2CCN(Cc3ccccc3)C2)n1 (centres unmarked) [Compound P-38]
Selectivity n/e (rat nNOS; Table 1a, Ki(eNOS)/Ki(nNOS)): 66.19
Selectivity n/i (rat nNOS; Table 1a, Ki(iNOS)/Ki(nNOS)): 155.05
Ki (rat nNOS; [3]): 2.74 µM
IC50 (rat nNOS; Table 1a): 23.8 µM
Ki (murine iNOS; [4]): 425 µM
IC50 (murine iNOS; Table 1a): 937 µM
Ki (bovine eNOS; [5]): 181 µM
IC50 (bovine eNOS; Table 1a): 1250 µM

Nc1cccc(CC2CNCC2NC2CCN(Cc3ccccc3)C2)n1 (centres unmarked) [Compound P-39]
Selectivity n/e (rat nNOS; Table 1a, Ki(eNOS)/Ki(nNOS)): 4.10
Selectivity n/i (rat nNOS; Table 1a, Ki(iNOS)/Ki(nNOS)): 14.38
Ki (rat nNOS; [3]): 22.6 µM
IC50 (rat nNOS; Table 1a): 196 µM
Ki (murine iNOS; [4]): 325 µM
IC50 (murine iNOS; Table 1a): 716 µM
Ki (bovine eNOS; [5]): 92.8 µM
IC50 (bovine eNOS; Table 1a): 638 µM
